How the values were obtained:
[1] = tobramycin treatments; cited from earlier work
[2] = AMPatch in-vivo tobramycin PK monitoring in a rat model (ISF sensor readout and blood LC-MS/MS); parameters: species or system Sprague-Dawley rats; details: intravenous tobramycin 20 mg/kg, different animals
Excerpt: More particularly, the developed AMPatch was applied to monitor the PK profile of tobramycin in dermal ISF using a rat model and investigate the drug's ISF-blood correlation. Accordingly, used were three healthy adult Sprague-Dawley rats and the animals were anesthetized during the test (FIG. 4A). An AMPatch was placed at the back of the animal to render continuous ISF monitoring upon intravenous tobramycin injection. […] To investigate the drug's ISF-blood correlation, blood samples were simultaneously collected before and at intermittent time points after drug injection, followed by standard lab analysis (liquid chromatography with tandem mass spectrometry, LC-MS/MS). The acquired PK readouts were interpreted using a two compartment-based pharmacokinetic model, which captures the drug's distribution (e.g., from blood to ISF) and elimination processes (FIG. 4B). The blood-ISF correlation was evaluated by comparing the drug's circulating AUC (AUC_blood) versus the AUC and the maximum concentrations of ISF drug, where the ISF concentrations can be equivalently presented by the measured sensor response (denoting AUC_ISF and R_max, respectively).
An AMPatch according to embodiments was first deployed in a manner to assess its capability of tracking the ISF PK profile in-vivo. […]

AUC ([2]; Sprague-Dawley, blood LC-MS/MS, read-out: AUC_blood): 176 µM·h | AUC_ISF ([2]; dermal ISF, AMPatch sensor response): 7.7±5.2 %·h
SMILES: NC[C@H]1O[C@H](O[C@H]2[C@H](O)[C@@H](O[C@H]3O[C@H](CO)[C@@H](O)[C@H](N)[C@H]3O)[C@H](N)C[C@@H]2N)[C@H](N)C[C@@H]1O [tobramycin]
rate of nephrotoxicity incidence [1]: 12%

Source: patent US20250185948A1, “WEARABLE APTAMER MICRONEEDLE PATCH FOR CONTINUOUS MINIMALLY-INVASIVE BIOMONITORING” (THE REGENTS OF THE UNIVERSITY OF CALIFORNIA, priority 2022, published 2025)
